Assay results taken from patent US10626116B2, “Crystalline form of BTK kinase inhibitor and preparation method thereof” (Jiangsu Hengrui Medicine Co., Ltd., priority 2016, dated 2020).

What was measured:
[1] = Stability under lighting, heating and high humidity; purity detected by HPLC; assay type: physicochemical; conditions: for Purity by HPLC, 40° C.: heating 40° C.; for Purity by HPLC, 40° C. / Purity by HPLC, 60° C. / Purity by HPLC, RH 75% / Purity by HPLC, RH 90% / Purity by HPLC, Lighting: spread flat in the air; for Purity by HPLC, 60° C.: heating 60° C.; for Purity by HPLC, RH 75%: high humidity RH 75%; for Purity by HPLC, RH 90%: high humidity RH 90%; for Purity by HPLC, Lighting: lighting 4500 Lux
Description: The sample of amorphous form prepared in Example 1 and the sample of crystal form I prepared in Example 2 were spread flat in the air to test their stability under conditions of lighting (4500 Lux), heating (40° C., 60° C.), and high humidity (RH 75%, RH 90%), respectively. Samplings were carried out on Day 5 and Day 10.

[2] = Special stability study of crystal form I (grinding, heating, tableting); assay type: physicochemical
Text: Crystal form I of the compound of formula (I) prepared according to the method of Example 2 was ground, heated and tableted.

[3] = Grinding treatment for 10 minutes in a mortar under nitrogen atmosphere, batch 20150427G
[4] = Heating treatment for 3 hours at 80° C., batch 20150427H
[5] = Tableting treatment, batch 20150427P

SMILES | Purity by HPLC, 40° C. ([1]; Day 0) | Purity by HPLC, 40° C. ([1]; Day 5) | Purity by HPLC, 40° C. ([1]; Day 10) | Purity by HPLC, 60° C. ([1]; Day 0) | Purity by HPLC, 60° C. ([1]; Day 5) | Purity by HPLC, 60° C. ([1]; Day 10) | Purity by HPLC, RH 75% ([1]; Day 0) | Purity by HPLC, RH 75% ([1]; Day 5) | Purity by HPLC, RH 75% ([1]; Day 10) | Purity by HPLC, RH 90% ([1]; Day 0) | Purity by HPLC, RH 90% ([1]; Day 5) | Purity by HPLC, RH 90% ([1]; Day 10) | Purity by HPLC, Lighting ([1]; Day 0) | Purity by HPLC, Lighting ([1]; Day 5) | Purity by HPLC, Lighting ([1]; Day 10) | further results
CC#CC(=O)N1CC[C@@H](n2cc(-c3ccc(Oc4c(F)cccc4F)cc3)c3c(N)n[nH]c(=O)c32)C1 [Crystal form I, (R)-4-amino-1-(1-(but-2-ynoyl)pyrrolidin-3-yl)-3-(4-(2,6-difluorophenoxy)phenyl)-1H-pyrrolo[2,3-d]pyridazin-7(6H)-one] | 99.21% | 99.28% | 99.35% | 99.21% | 99.26% | 99.25% | 99.21% | 99.30% | 99.25% | 99.21% | 99.30% | 99.32% | 99.21% | 99.26% | 99.25% | Stability compared with the amorphous sample ([1]; conditions of lighting, high temperature and high humidity): significantly better than that of the amorphous sample; Crystal form after treatment [2, 3]: Crystal; DSC peak after treatment [2, 3]: 239.32 °C; Crystal form after treatment [2, 4]: Crystal; DSC peak after treatment [2, 4]: 238.98 °C; Crystal form after treatment [2, 5]: Crystal; DSC peak after treatment [2, 5]: 241.19 °C; Stability of the crystal form ([2]; ground, heated and tableted (grinding, pressure and heating)): stable
CC#CC(=O)N1CC[C@@H](n2cc(-c3ccc(Oc4c(F)cccc4F)cc3)c3c(N)n[nH]c(=O)c32)C1 [Amorphous form, (R)-4-amino-1-(1-(but-2-ynoyl)pyrrolidin-3-yl)-3-(4-(2,6-difluorophenoxy)phenyl)-1H-pyrrolo[2,3-d]pyridazin-7(6H)-one] | 97.70% | 97.64% | 97.57% | 97.70% | 97.68% | 97.52% | 97.70% | 97.52% | 97.59% | 97.70% | 97.50% | 97.48% | 97.70% | 97.67% | 97.62% | 
